Entries after “also recorded” stand apart in the source; their conditions may differ.

One data set deals with NPC1 cells. The settings on record: depletion of stored GSLs with NB-DGJ; cited from earlier work.
A further data set deals with GSL biosynthesis. The settings on record: cited from earlier work.
The conditions of data set [1]: cited from earlier work.
For data set [2], the system named is DHCR7−/− mouse embryonic fibroblasts. The data set can be described thus: Nile red staining of ER neutral lipids in DHCR7−/− MEFs. The data set is classed as cell-based. More on the design: dose or concentration left out as unconfirmed. The settings on record: 5 days. The procedure: DHCR7−/− mouse embryonic fibroblasts were grown under the conditions indicated in FIG. 9 (FCS=foetal calf serum, LPDS=lipoprotein deficient serum) for 5 days prior to staining of neutral lipids with Nile red. Under wild-type conditions (growth in FCS) Nile red stains the endoplasmic reticulum (ER) as expected. Inducing DHCR7−/− cells into a Smith-Lemli-Opitz phenotype by growth in LPDS leads to a depletion in ER neutral lipids and an elevation in punctate staining indicative of a block in transport to the ER. […] N=2.

For data set [3], the system named is NPC1 null (CT43) CHO cells. The data set can be described thus: Total GSL level (HPLC) in NPC1 null CHO cells. The format is cell-based. The settings on record: 50 μM NB-DGJ, 5 days, FIG. 3A. The text has this: (§1) It has been shown that Niemann-Pick C1 cells (NPC1 null CHO cells) and normal cells treated with amphiphiles to induce an NPC1 phenotype, in addition to free cholesterol storage, have glycosphingolipid (GSL) storage (FIG. 3A) and abnormalities in endocytic transport (FIG. 3B) including defective early to late endosomal transport and late endosomal to Golgi transport (J Biol Chem 2004; 279(25):26167-75). NPC1 cells have a 2-fold increase in total GSLs (HPLC quantified) compared to controls (FIG. 3A). […] This correction in GSL levels is associated with a correction in endocytic transport defects (J Biol Chem 2004; 279(25):26167-75). Fluorescently labelled lactosylceramide (BODIPY-LacCer), a GSL normally transported through the endocytic system to the Golgi (FIG. 3Bi), is misdirected to the LE/Lys system in untreated NPC1 cells (FIG. 3Bii), indicative of GSL storage (J Biol Chem 2004; 279(25):26167-75; J Biol Chem 2003; 278(23):20961-70; Am J Hum Genet 2001; 68(6):1361-72).

In the next data set the test system is SLOS (DHCR7−/−) MEFs. The format is cell-based, murine. The settings on record: 50 μM NB-DGJ, 5 days, medium with LPDS.
For data set [4] the following is noted: cited from earlier work. The source holds these as a separate data set.
The subject of data set [5] is NPC1 null (CT43) CHO cells. The experiment in a line: BODIPY-LacCer pulse/chase endocytic transport in NPC1 null CHO cells. The data set is classed as cell-based. The settings on record: 50 μM NB-DGJ, 5 days, 45 min pulse, 1 h chase, FIG. 3B.
Text: as §1

For data set [6], the system named is total ganglioside and GM1 content in cerebrum-brainstem. The settings on record: cited from earlier work.

For `CCCCN1C[C@H](O)[C@@H](O)[C@@H](O)[C@H]1CO` [NB-DGJ, N-butyldeoxygalactonojirimycin], in the data set with NPC1 cells, the HRP uptake result was “correction in HRP uptake”. Moreover, the “inhibition of GSL biosynthesis relative to NB-DNJ” value in the data set with GSL biosynthesis is “comparably to NB-DNJ”. For the same compound, the neurological side effects result in data set [1] (adult mice) is recorded as “not to cause neurological side effects”. In [1] (mouse, in vivo), the CNS penetration entry is recorded as “penetrate the CNS” and the “effects on behaviour or CNS development” value is “without significant effects on behaviour or CNS development”. In addition, the “ER neutral lipid levels (Nile red)” value in data set [2] is “restoration of normal levels of neutral lipids at the ER”. Further, the GSL storage result in [3] is “reduction in GSL storage”. In the data set with SLOS (DHCR7−/−) MEFs, the “endogenous ganglioside GM1 / GSL trafficking from LE/Lys to Golgi” value is “corrected altered endogenous ganglioside GM1 trafficking”. Also, the tolerability result in data set [4] (mouse models of GSL storage diseases) is “very well tolerated”. In data set [4] (mouse, in vivo), the “side effect activities relative to NB-DNJ” value is recorded as “lacks certain side effect activities associated with NB-DNJ”. In [5], the BODIPY-LacCer endocytic transport entry was “correction in abnormal BODIPY-LacCer endocytic transport; also recorded: correction in BODIPY-LacCer transport to the Golgi”. Further, the “total ganglioside and GM1 content” value in data set [6] is recorded as “marked reduction”.
